We go through 19 compounds from patent US8946437B2, “4-(methylaminophenoxy)pyrdin-3-yl-benzamide derivatives for treating cancer” (Otsuka Pharmaceutical Co., Ltd., priority 2010, dated 2015).

Counter-ions that a name gives are not always drawn. Some results are limits rather than exact numbers.

Series [1] is described as follows: Metabolic stability test in hepatic microsome. The class given is in vitro ADME. To be noted: liver microsomes, NADH/NADPH, 37° C., 0, 10 and 20 min, read-out: CLint (intrinsic clearance). Here is the method:
Metabolic Stability Test in Hepatic Microsome
In this study, 222.5 μL of 0.22 mg/mL liver microsome was distributed to each tube, and 2.5 μL of 100 μM test compound was added thereto. Then, 22.5 μL of this mixture was divided to 500 μL of acetonitrile spiked IS as 0 min sample, and the residue was pre-incubated at 37° C. for 5 min. Reaction was started by the addition of 22.5 μL of 10 mM NADH/NADPH, and after 10 and 20 min, 25 μL of the reaction mixture was divided to 500 μL of acetonitrile spiked IS. The samples were centrifuged (5700 rpm, 4° C., 10 min), and the supernatants were analyzed by LC/MS/MS. The slope of the linear regression from log percentage remaining versus incubation time relationships (−ke) was calculated, and the intrinsic clearance (CLint) was calculated using the following equation.

The subject of series [2] is human hepatic cancer cells (HuH-7). As to the kind of experiment: Antiproliferative effect on cancer cells (in vitro), sulforhodamine B method. To be noted: 120 h, HuH-7 cells, 5 days incubation with test compound, SRB staining, read-out: IC50 (50% inhibitory concentration), growth inhibition of HuH-7 cells. It is filed as cell-based. Here is the method: Antiproliferative Effect on Cancer Cells (In Vitro)
Growth inhibition of human hepatic cancer cells (HuH-7) was determined by the sulforhodamine B method based on the method of Skehan P. et al. (J Natl Cancer Inst. 1990 Jul. 4; 82(13): 1107-12). In the study, HuH-7 cells were seeded on DMEM medium containing 10% fetal bovine serum in a 96-well microplate. After 24-hour incubation at 37° C. in the presence of 5% carbon dioxide, the test compound was added and the cells were incubated for another 5 days. After incubation, a trichloroacetic acid solution was added to yield the final concentration of 10% and the cells were left to stand at 4° C. for 1 hour to fix. Then, the cells were washed with water to remove the medium and trichloroacetic acid and dried in the air. The dried cells were stored at 4° C. until they were stained with sulforhodamine B. To each well, 1% acetic acid solution containing 0.4% sulforhodamine B was added and left to stand for 20 to 30 minutes at room temperature. After discarding the supernatant, each well was washed with 1% acetic acid solution, and 10 mM Tris(tris-(hydroxymethyl)aminomethane) solution was added while stirring to elute the dye taken into the cells. Then, the optical density was determined at the measurement wavelength of 492 nm and the reference wavelength of 690 nm, and the difference was calculated. The cell growth activity in each well was defined as the value determined by subtracting the OD in the control well not containing cells (the difference in absorbance between 492 nm and 690 nm) from that in the test well.
The 50% inhibitory concentration (IC50 (nM)) of the test compound was determined by comparing the cell growth activity in the well containing the test compound with that of the control not containing the test compound.
For orientation: Sulforhodamine B stains cellular protein and so reports cell mass.

Series [3] can be described thus: Stability test of dissolved compounds under heat- and acid-stress condition. It is filed as physicochemical. As to conditions: dissolved in water/acetonitrile/trifluoroacetic acid (500:500:1), stored at 70° C., Day 0, Day 1 and Day 3. Here is the method:
In order to estimate the stability of compounds without conducting a long-term stability test, the stability of the dissolved compounds was evaluated under a heat- and acid-stress condition.
About 0.005 g of test compound was dissolved in 50 mL of a mobile phase, and this solution was used as the sample solution. The solutions were put into a brown glass vial and stored at 70° C. during the test period. The test with 20 μL of each of the sample solution was conducted at the following sampling points as directed under the Liquid Chromatography according to the following conditions. The residual ratio of the test compound's peak area (%) in the total peak area detected in the solution was determined by the automatic integration method. Operating conditions were as follows. […] The residual ratio of the test compound's peak area (%) is calculated as follows. The peak area of the test compound/The total peak area detected in the solution×100.

`CNc1ccc(Oc2ccc(NC(=O)c3ccc(F)c(F)c3F)cn2)c(OC)c1.Cl` returned a melting point of 207.1 to 209.8 °C.
Regarding `CNc1ccc(Oc2ccc(NC(=O)c3ccc(-c4ccccc4)cc3)cn2)c(F)c1` [Example 2, N-{6-[2-Fluoro-4-(methylamino)phenoxy]pyridin-3-yl}biphenyl-4-carboxamide], the melting point was 190 to 190.5 °C (dec.). In addition, in series [1], the microsomal CLint at 1 µM is less than 200 µL/min/mg. In series [2], the IC50 came to 108 nM.
For the compound `CNc1ccc(Oc2ccc(NC(=O)c3ccc(C(F)(F)F)cc3)cn2)c(F)c1` [Example 3, N-{6-[2-Fluoro-4-(methylamino)phenoxy]pyridin-3-yl}-4-(trifluoromethyl)benzamide], the microsomal CLint at 1 µM in series [1] is less than 200 µL/min/mg. Besides, the IC50 in series [2] turned out to be 155 nM.
As to `CNc1ccc(Oc2ccc(NC(=O)c3ccc(Oc4ccccc4)cc3)cn2)c(C)c1` [Example 6, N-{6-[2-Methyl-4-(methylamino)phenoxy]pyridin-3-yl}-4-phenoxybenzamide], the microsomal CLint at 1 µM in series [1] is less than 200 µL/min/mg. Moreover, in series [2], the IC50 amounted to 78.5 nM.
On the same counts, the results for `CNc1ccc(Oc2ccc(NC(=O)c3ccc(-c4ccccc4)cc3)cn2)c(C)c1` [Example 7, N-{6-[2-Methyl-4-(methylamino)phenoxy]pyridin-3-yl}biphenyl-4-carboxamide] are less than 200 µL/min/mg and 77.6 nM.
On the same counts, the results for `CNc1ccc(Oc2ccc(NC(=O)c3ccc(C(F)(F)F)cc3F)cn2)c(C)c1` [Example 9, 2-Fluoro-N-{6-[2-methyl-4-(methylamino)phenoxy]pyridin-3-yl}-4-(trifluoromethyl)benzamide] are less than 200 µL/min/mg and 70.4 nM.
In the case of `CNc1ccc(Oc2ccc(NC(=O)c3ccc(Oc4ccccc4)cc3)cn2)cc1` [Example 10, N-{6-[4-(Methylamino)phenoxy]pyridin-3-yl}-4-phenoxybenzamide], the IC50 in series [2] was 320 nM.
For the compound `CNc1ccc(Oc2ccc(NC(=O)c3ccc(-c4ccccc4)cc3)cn2)cc1` [Example 11, N-{6-[4-(Methylamino)phenoxy]pyridin-3-yl}biphenyl-4-carboxamide], the IC50 in series [2] came out at 311 nM.
For the compound `CNc1ccc(Oc2ccc(NC(=O)c3ccc(-c4ccccc4)cc3)cn2)c(OC)c1` [Example 14, N-{6-[2-Methoxy-4-(methylamino)phenoxy]pyridin-3-yl}biphenyl-4-carboxamide], the melting point is 161.4 to 161.8 °C. Moreover, the microsomal CLint at 1 µM in series [1] was less than 200 µL/min/mg. For the same compound, the IC50 in series [2] is 248 nM.
On to `CNc1ccc(Oc2ccc(NC(=O)c3ccc(Oc4ccccc4)cc3)cn2)c(F)c1` [Example 21, N-{6-[2-fluoro-4-(methylamino)phenoxy]pyridin-3-yl}-4-phenoxybenzamide hydrochloride], for which the IC50 in series [2] was found to be 136 nM.
`CNc1ccc(Oc2ccc(NC(=O)c3ccc(C(F)(F)F)cc3F)cn2)c(F)c1` [Example 22, 2-Fluoro-N-{6-[2-fluoro-4-(methylamino)phenoxy]pyridin-3-yl}-4-(trifluoromethyl)benzamide hydrochloride]: in series [1], the microsomal CLint at 1 µM is less than 200 µL/min/mg. Besides, the IC50 in series [2] came out at 163 nM.
Turning to `CNc1ccc(Oc2ccc(NC(=O)c3ccc(F)c(F)c3F)cn2)c(F)c1` [Example 23, 2,3,4-Trifluoro-N-{6-[2-fluoro-4-(methylamino)phenoxy]pyridin-3-yl}benzamide hydrochloride], in series [2], the IC50 was determined as 753 nM.
In the case of `CNc1ccc(Oc2ccc(NC(=O)c3ccc(C(F)(F)F)cc3)cn2)c(C)c1` [Example 24, N-{6-[2-methyl-4-(methylamino)phenoxy]pyridin-3-yl}-4-(trifluoromethyl)benzamide hydrochloride], the microsomal CLint at 1 µM in series [1] was less than 200 µL/min/mg. Also, the IC50 in series [2] came out at 72.3 nM.
Consider `CNc1ccc(Oc2ccc(NC(=O)c3ccc(F)c(F)c3F)cn2)c(C)c1.Cl` [Example 25, 2,3,4-Trifluoro-N-{6-[2-methyl-4-(methylamino)phenoxy]pyridin-3-yl}benzamide hydrochloride], for which the melting point is 222.9 to 225.4 °C (dec.). Also, in series [1], the microsomal CLint at 1 µM is less than 200 µL/min/mg. For the same compound, in series [2], the IC50 turned out to be 485 nM.
On the same counts, the results for `CNc1ccc(Oc2ccc(NC(=O)c3ccc(Oc4ccccc4)cc3)cn2)c(OC)c1.Cl` [Example 26, N-{6-[2-Methoxy-4-(methylamino)phenoxy]pyridin-3-yl}-4-phenoxybenzamide hydrochloride] are 202.2 to 202.3 °C, less than 200 µL/min/mg and 275 nM.
On the same counts, the results for `CNc1ccc(Oc2ccc(NC(=O)c3ccc(C(F)(F)F)cc3)cn2)c(OC)c1.Cl` [Example 27, N-{6-[2-Methoxy-4-(methylamino)phenoxy]pyridin-3-yl}-4-(trifluoromethyl)benzamide hydrochloride] are 217.6 to 218.2 °C, less than 200 µL/min/mg and 304 nM.
For `CNc1ccc(Oc2ccc(NC(=O)c3ccc(C(F)(F)F)cc3F)cn2)c(OC)c1.Cl` [Example 28, 2-Fluoro-N-{6-[2-methoxy-4-(methylamino)phenoxy]pyridin-3-yl}-4-(trifluoromethyl)benzamide hydrochloride], in that order: 197 to 198.1 °C, less than 200 µL/min/mg and 293 nM.
`CNc1ccc(Oc2ccc(NC(=O)c3ccc(C(F)(F)F)cc3)cn2)cc1.Cl` [Example 30, N-{6-[4-(Methylamino)phenoxy]pyridin-3-yl}-4-(trifluoromethyl)benzamide hydrochloride]: in series [1], the microsomal CLint at 1 µM was less than 200 µL/min/mg. Further, the “storage stability (residual ratio of the test compound's peak area)” value in series [3] is “superior storage stability”. For the same compound, the IC50 in series [2] stood at 275 nM.
For the compound `CNc1ccc(Oc2ccc(NC(=O)c3ccc(C(F)(F)F)cc3F)cn2)cc1` [Example 31, 2-Fluoro-N-{6-[4-(methylamino)phenoxy]pyridin-3-yl}-4-(trifluoromethyl)benzamide hydrochloride], the microsomal CLint at 1 µM in series [1] is less than 200 µL/min/mg. Besides, in series [2], the IC50 came to 327 nM.

A word on the melting point: it is the temperature, or range, at which the solid turns liquid.
